# Biological target: T1, ACE-2 (Homo sapiens, UniProt Q9BYF1)
# T1 construct: a stop codon inserted after the serine immediately preceding the transmembrane domain; made in house; host or cells: CHO K1 cells (transient transfection, purified from conditioned medium)
# Test: ACE-2 Competitive Substrate Assay (ACS Assay)
# Type: biochemical
# Details: Ki class per key; compounds tested in 5% DMSO, 12 compound concentrations, 25° C.; Ki=Kiapp/(1+[S]/Km); read-out: Human ACE-2 Activity
# T1 sequence (Q9BYF1 18-740 limits assumed): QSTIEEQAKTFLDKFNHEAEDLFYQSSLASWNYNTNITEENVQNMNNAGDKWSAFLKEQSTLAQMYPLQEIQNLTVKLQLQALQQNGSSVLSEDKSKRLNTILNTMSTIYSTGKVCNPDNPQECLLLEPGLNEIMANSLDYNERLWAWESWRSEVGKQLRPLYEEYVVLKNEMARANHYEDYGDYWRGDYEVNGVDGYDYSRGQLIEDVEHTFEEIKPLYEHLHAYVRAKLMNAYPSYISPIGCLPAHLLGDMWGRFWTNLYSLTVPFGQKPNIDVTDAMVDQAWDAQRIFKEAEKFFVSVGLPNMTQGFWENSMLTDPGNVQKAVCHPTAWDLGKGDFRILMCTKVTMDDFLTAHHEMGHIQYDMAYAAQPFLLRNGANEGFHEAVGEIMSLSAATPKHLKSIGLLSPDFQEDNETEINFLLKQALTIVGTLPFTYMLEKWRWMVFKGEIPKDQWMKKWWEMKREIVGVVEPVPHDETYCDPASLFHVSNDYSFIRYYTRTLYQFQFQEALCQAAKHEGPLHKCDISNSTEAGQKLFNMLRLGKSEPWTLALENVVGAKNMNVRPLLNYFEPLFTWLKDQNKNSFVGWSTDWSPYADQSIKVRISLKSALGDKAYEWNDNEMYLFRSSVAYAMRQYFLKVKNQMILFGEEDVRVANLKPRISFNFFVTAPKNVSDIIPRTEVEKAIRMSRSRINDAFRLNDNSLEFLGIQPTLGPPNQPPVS
row,Ki [µM],SMILES
1,< 0.1,"CC(C)C[C@H](N[C@@H](C/C=C\c1cc(Cl)cc(Cl)c1)C(=O)O)C(=O)O (stereo in doubt) [PV, 2-(1-Carboxy-3-methyl-butylamino)-5-(3,5-dichloro-phenyl)-pent-4-enoic acid]"
2,< 0.1,"CC(C)C[C@H](N[C@@H](Cc1ccc(-c2ccccn2)cc1)C(=O)O)C(=O)O [PI, (S,S)-2-[1-Carboxy-2-(4-pyridin-2-yl-phenyl)-ethylamino]-4-methyl-pentanoic acid]"
3,< 0.1,"CC(C)C[C@H](N[C@@H](CN1C(=O)CN(Cc2cc(F)cc(F)c2)C1=O)C(=O)O)C(=O)O [PW, 2-[1-Carboxy-2-[3-(3,5-difluoro-benzyl)-2,5-dioxo-imidazolidin-1-yl]-ethylamino]-4-methyl-pentanoic acid]"
4,0.1 to 0.5,"CC(C)C[C@H](N[C@@H](Cc1ccc(N(Cc2cc(F)cc(F)c2)Cc2cc(F)cc(F)c2)cc1)C(=O)O)C(=O)O [RD, 2-(2-(4-[Bis-(3,5-difluoro-benzyl)-amino]-phenyl)-1-carboxy-ethylamino)-4-methyl-pentanoic acid]"
5,0.1 to 0.5,"CC(C)C[C@H](N[C@@H](Cc1ccc(NC(=O)C2CCCC2)cc1)C(=O)O)C(=O)O [QR, 2-[1-Carboxy-2-[4-(cyclopentanecarbonyl-amino)-phenyl]-ethylamino]-4-methyl-pentanoic acid]"
6,> 0.5,"CC(C)C[C@H](N[C@@H](CC#Cc1cc(Cl)cc(Cl)c1)C(=O)O)C(=O)O [PR, 2-(1-Carboxy-3-methyl-butylamino)-5-(3,5-dichloro-phenyl)-pent-4-ynoic acid]"
7,> 0.5,"C[C@@H](N[C@@H](Cc1cncn1Cc1cc(Cl)cc(Cl)c1)C(=O)O)C(=O)O [PM, 2-(1-Carboxy-ethylamino)-3-[3-(3,5-dichloro-benzyl)-3H-imidazol-4-yl]-propionic acid]"
8,> 0.5,"CC(C)C[C@H](N[C@@H](Cc1ccc(Oc2cc(F)cc(F)c2)cc1)C(=O)O)C(=O)O [PS, 2-[1-Carboxy-2-[4-(3,5-difluoro-phenoxy)-phenyl]-ethylamino]-4-methyl-pentanoic acid]"
9,0.1 to 0.5,"CC(C)C[C@H](N[C@@H](Cc1ccc(C(=O)Nc2ccccc2)cc1)C(=O)O)C(=O)O [QF, 2-[1-Carboxy-2-(4-phenylcarbamoyl-phenyl)-ethylamino]-4-methyl-pentanoic acid]"

# Same assay, conditions: Ki class; compounds tested in 5% DMSO, 12 compound concentrations, Ki=Kiapp/(1+[S]/Km); read-out: Human ACE-2 Activity
row,SMILES,Ki [µM]
1,"Cc1cc2nc(NC(=O)C[C@H](N[C@@H](CC(C)C)C(=O)O)C(=O)O)sc2cc1C [MC, (S,S)-2-[1-Carboxy-2-(5,6-dimethyl-benzothiazol-2-ylcarbamoyl)-ethylamino]-4-methyl-pentanoic acid]",> 0.5
2,"CC(C)C[C@H](N[C@@H](Cc1csc(-c2ccc(Cl)cc2Cl)n1)C(=O)O)C(=O)O [KG, (S,S)-2-{1-Carboxy-2-[2-(2,4-dichloro-phenyl)-thiazol-4-yl-]-ethylamino}-4-methyl-pentanoic acid]",< 0.1
3,"CC(C)CC(N[C@@H](Cc1cncn1Cc1ccc(Cl)c(Cl)c1)C(=O)O)C(=O)O (single isomer, unassigned) [GX]",> 0.5
4,"CC(C)C[C@H](N[C@@H](Cn1ccn(CCC2CCCCC2)c1=O)C(=O)O)C(=O)O [ME, (S,S)-2-{1-Carboxy-2-[3-(2-cyclohexyl-ethyl)-2-oxo-2,3-dihydro-imidazol-1-yl]-ethylamino}-4-methyl-pentanoic acid]",0.1 to 0.5
5,"CC(C)CC(N[C@@H](Cc1cncn1Cc1ccccc1-c1ccccc1)C(=O)O)C(=O)O (single isomer, unassigned) [IE]",> 0.5
6,"COc1ccc2nc(NC(=O)C[C@H](N[C@@H](CC(C)C)C(=O)O)C(=O)O)sc2c1 [MO, (S,S)-2-[1-Carboxy-2-(6-methoxy-benzothiazol-2-ylcarbamoyl)-ethylamino]-4-methyl-pentanoic acid]",0.1 to 0.5
7,"CC(C)CC(N[C@@H](Cc1cncn1Cc1cccc(C(F)(F)F)c1)C(=O)O)C(=O)O (single isomer, unassigned) [JA, 2-[1-Carboxy-2-[3-(3-trifluoromethyl-benzyl)-3H-imidazol-4-yl]-ethylamino]4-methyl-pentanoic acid]",> 0.5
8,"CC(C)C[C@H](N[C@@H](CC(=O)Nc1nc2c(Cl)cccc2s1)C(=O)O)C(=O)O [MD, (S,S)-2-[1-Carboxy-2-(4-chloro-benzothiazol-2-ylcarbamoyl)-ethylamino]-4-methyl-pentanoic acid]",< 0.1
9,"COc1ccc2ccccc2c1Cn1cncc1C[C@H](NC(CC(C)C)C(=O)O)C(=O)O (single isomer, unassigned) [IS, 2-[1-Carboxy-2-[3-(2-methoxy-naphthalen-1-ylmethyl)-3H-imidazol-4-yl]-ethylamino]-4-methyl-pentanoic acid]",> 0.5
10,"CC(C)C[C@H](N[C@@H](Cn1ccn(Cc2cc(F)cc(F)c2)c1=O)C(=O)O)C(=O)O [LG, 2-[1-Carboxy-2-[3-(3,5-difluoro-benzyl)-2-oxo-2,3-dihydro-imidazol-1-yl]-ethylamino]-4-methyl-pentanoic acid]",< 0.1
11,"CC(C)C[C@H](N[C@@H](Cn1ccn([C@H](C)c2ccccc2)c1=O)C(=O)O)C(=O)O [MF, 2-[1-Carboxy-2-[2-oxo-3-(1-phenyl-ethyl)-2,3-dihydro-imidazol-1-yl]-ethylamino]-4-methyl-pentanoic acid]",> 0.5
12,"CC(C)C[C@H](N[C@@H](CCNS(=O)(=O)c1ccc(-c2ccccc2)cc1)C(=O)O)C(=O)O [KF, 2-[3-(Biphenyl-4-sulfonylamino)-1-carboxy-propylamino]-4-methyl-pentanoic acid]",0.1 to 0.5
13,"COc1cccc(Cn2cncc2C[C@H](NC(CC(C)C)C(=O)O)C(=O)O)c1OC (single isomer, unassigned) [IP, 2-[1-Carboxy-2-[3-(2,3-dimethoxy-benzyl)-3H-imidazol-4-yl]-ethylamino)4-methyl-pentanoic acid]",> 0.5
14,"CC(C)CC(N[C@@H](Cc1csc(Cc2ccccc2)n1)C(=O)O)C(=O)O (single isomer, unassigned) [JZ, 2-[2-(2-Benzyl-thiazol-4-yl)-1-carboxy-ethylamino]-4-methyl-pentanoic acid]",> 0.5
15,"CC(C)CC(N[C@@H](Cc1cncn1Cc1ccc(C(C)C)cc1)C(=O)O)C(=O)O (single isomer, unassigned) [HV, 2-[1-Carboxy-2-[3-(4-isopropyl-benzyl)-3H-imidazol-4-yl]-ethylamino)4-methyl-pentanoic acid]",> 0.5
16,"CC(C)CC(N[C@@H](Cc1cncn1Cc1cc(Cl)cc(Cl)c1)C(=O)O)C(=O)O (single isomer, unassigned) [HF, 2-[1-Carboxy-2-[3-(3,5-dichloro-benzyl)-3H-imidazol-4-yl]-ethylamino)4-methyl-pentanoic acid]",0.1 to 0.5
17,"CC(C)C[C@H](N[C@@H](Cc1ccc(OCc2cc(Cl)cc(Cl)c2)cc1)C(=O)O)C(=O)O [KS, 2-[1-Carboxy-2-[4-(3,5-dichloro-benzyloxy)-phenyl]-ethylamino)-4-methyl-pentanoic acid]",< 0.1

# Second part, the molecule after the results:
row,Ki [µM],SMILES
1,< 0.1,"CC(C)C[C@H](N[C@@H](Cc1ccnn1Cc1cc(Cl)cc(Cl)c1)C(=O)O)C(=O)O [MV, 2-{1-carboxy-2-[2-(3,5-dichlorobenzyl)-2H-pyrazol-3-yl]-ethylamino}-4-methyl-pentanoic acid]"
2,0.1 to 0.5,"CC(C)C[C@H](N[C@@H](Cc1ccc(-c2cc(Cl)cc(Cl)c2)o1)C(=O)O)C(=O)O [NS, (S,S)-2-{1-Carboxy-2-[5-(3,5-dichlorophenyl)-furan-2-yl]-ethylamino}-4-methyl-pentanoic acid]"
3,> 0.5,"CC(C)C[C@H](N[C@@H](CNC(=O)c1ccc2ccccc2c1)C(=O)O)C(=O)O [MT, 2-(1-Carboxy-2-[(naphthalene-2-carbonyl)amino]-ethylamino)-4-methyl-pentanoic acid]"
4,> 0.5,"CC(C)C[C@H](N[C@@H](CNS(=O)(=O)c1ccc2ccccc2c1)C(=O)O)C(=O)O [MU, 2-[1-Carboxy-2-(naphthalene-2-sulfonylamino)-ethylamino]-4-methyl-pentanoic acid]"
5,0.1 to 0.5,"Cc1cc(C)cc(-c2ccc(C[C@H](N[C@@H](CC(C)C)C(=O)O)C(=O)O)o2)c1 [NT, (S,S)-2-{1-Carboxy-2-[5-(3,5-dimethyl-phenyl)-furan-2-yl]-ethylamino}-4-methyl-pentanoic acid]"
6,< 0.1,"CC(C)C[C@H](N[C@@H](CC(=O)Nc1nc2ccc(F)cc2s1)C(=O)O)C(=O)O [MQ, 2-[1-Carboxy-2-(6-fluoro-benzothiazol-2-ylcarbamoyl)-ethylamino]-4-methyl-pentanoic acid]"
7,0.1 to 0.5,"CC(C)CC(N[C@@H](C[C@H]1COC(=O)N1Cc1cc(Cl)cc(Cl)c1)C(=O)O)C(=O)O (stereo in doubt) [NN, (R,S,S)-2-{1-Carboxy-2-[3-(3,5-dichloro-benzyl)-2-oxo-oxazolidin-4-yl]-ethylamino}-4-methyl-pentanoic acid]"
8,0.1 to 0.5,"CC(C)C[C@H](N[C@@H](Cn1ccn(Cc2ccc(F)c(F)c2)c1=O)C(=O)O)C(=O)O [OU, 2-[1-Carboxy-2-[3-(3,4-difluoro-benzyl)-2-oxo-2,3-dihydro-imidazol-1-yl]-ethylamino]-4-methyl-pentanoic acid]"
9,0.1 to 0.5,"CC(C)C[C@H](N[C@@H](Cc1ccc(-c2ccccc2)o1)C(=O)O)C(=O)O [NR, (S,S)-2-[1-Carboxy-2-(5-phenyl-furan-2-yl)-ethylamino]-4-methyl-pentanoic acid]"

# Same assay, conditions: Ki class; compounds tested in 5% DMSO, 12 concentrations; read-out: Human ACE-2 Activity
row,Ki [µM],SMILES
1,> 0.5,"CC1(C)SC(C(=O)O)NC1C(=O)O (stereo not drawn) [L, 5,5-Dimethyl-thiazolidine-2,4-dicarboxylic acid]"
2,> 0.5,"O=C(O)[C@@H]1C[C@@H](C(=O)O)N1 [A, Azetidine-2,4-dicarboxylic acid]"
3,> 0.5,"CC(C)CC(N[C@@H](Cc1csc(-c2ccccc2)n1)C(=O)O)C(=O)O (stereo in doubt) [GQ, 2-[1-Carboxy-2-[2-phenyl-thiazol-4-yl)-ethylamino]-4-methyl-pentanoic acid]"

# Same assay, conditions: Table 3, very good ACE-2 inhibiting compounds; species not given; read-out: ACE-2 Activity, Ki
row,SMILES,Ki [µM]
1,"CC(C)C[C@H](N[C@@H](Cc1csc(-c2ccc(Cl)cc2Cl)n1)C(=O)O)C(=O)O [KG, (S,S)-2-{1-Carboxy-2-[2-(2,4-dichloro-phenyl)-thiazol-4-yl-]-ethylamino}-4-methyl-pentanoic acid]",0.05 to 0.1
2,"CC(C)C[C@H](N[C@@H](CC(=O)Nc1nc2c(Cl)cccc2s1)C(=O)O)C(=O)O [MD, (S,S)-2-[1-Carboxy-2-(4-chloro-benzothiazol-2-ylcarbamoyl)-ethylamino]-4-methyl-pentanoic acid]",< 0.05
3,"CC(C)C[C@H](N[C@@H](Cn1ccn(Cc2cc(F)cc(F)c2)c1=O)C(=O)O)C(=O)O [LG, 2-[1-Carboxy-2-[3-(3,5-difluoro-benzyl)-2-oxo-2,3-dihydro-imidazol-1-yl]-ethylamino]-4-methyl-pentanoic acid]",0.05 to 0.1
4,"CC(C)C[C@H](N[C@@H](Cc1ccc(OCc2cc(Cl)cc(Cl)c2)cc1)C(=O)O)C(=O)O [KS, 2-[1-Carboxy-2-[4-(3,5-dichloro-benzyloxy)-phenyl]-ethylamino)-4-methyl-pentanoic acid]",< 0.05

# Next, values leading:
row,Ki [µM],SMILES
1,< 0.05,"CC(C)C[C@H](N[C@@H](Cc1ccnn1Cc1cc(Cl)cc(Cl)c1)C(=O)O)C(=O)O [MV, 2-{1-carboxy-2-[2-(3,5-dichlorobenzyl)-2H-pyrazol-3-yl]-ethylamino}-4-methyl-pentanoic acid]"
2,0.05 to 0.1,"CC(C)C[C@H](N[C@@H](Cc1ccc(-c2ccccn2)cc1)C(=O)O)C(=O)O [PI, (S,S)-2-[1-Carboxy-2-(4-pyridin-2-yl-phenyl)-ethylamino]-4-methyl-pentanoic acid]"
3,< 0.05,"CC(C)C[C@H](N[C@@H](CC(=O)Nc1nc2ccc(F)cc2s1)C(=O)O)C(=O)O [MQ, 2-[1-Carboxy-2-(6-fluoro-benzothiazol-2-ylcarbamoyl)-ethylamino]-4-methyl-pentanoic acid]"

# — patent US7045532B2 (Millennium Pharmaceuticals, Inc., priority 1999, dated 2006)
